One experiment concerns the target T1, JAK2 (Homo sapiens, UniProt O60674).
T1 construct: endogenous in cells; host or cells: Mixed Molt4/Ramos lysate (1:2)
The experiment in a line: Kinobeads assay, JAK2. It is filed as binding. The conditions noted are these: mixed Molt4/Ramos cell lysate, dot blot detection. The essentials:
(§1)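 Competition pulldown: compound dilution series incubated 3 h in cold room with immobilized aminopyrido-pyrimidine beads and mixed Molt4/Ramos lysate (1:2, 10 mg/mL protein) in DP buffer pH 7.4 with NP40. Bead-bound JAK2/JAK3 eluted, quantified by antibody dot blot with infrared detection; IC50 from dose-response curves.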

A further experiment has as its target T2, JAK3 (Homo sapiens, UniProt P52333).
T2 construct: endogenous in cells; host or cells: Mixed Molt4/Ramos lysate (1:2)
T2 sequence (P52333 1-1124): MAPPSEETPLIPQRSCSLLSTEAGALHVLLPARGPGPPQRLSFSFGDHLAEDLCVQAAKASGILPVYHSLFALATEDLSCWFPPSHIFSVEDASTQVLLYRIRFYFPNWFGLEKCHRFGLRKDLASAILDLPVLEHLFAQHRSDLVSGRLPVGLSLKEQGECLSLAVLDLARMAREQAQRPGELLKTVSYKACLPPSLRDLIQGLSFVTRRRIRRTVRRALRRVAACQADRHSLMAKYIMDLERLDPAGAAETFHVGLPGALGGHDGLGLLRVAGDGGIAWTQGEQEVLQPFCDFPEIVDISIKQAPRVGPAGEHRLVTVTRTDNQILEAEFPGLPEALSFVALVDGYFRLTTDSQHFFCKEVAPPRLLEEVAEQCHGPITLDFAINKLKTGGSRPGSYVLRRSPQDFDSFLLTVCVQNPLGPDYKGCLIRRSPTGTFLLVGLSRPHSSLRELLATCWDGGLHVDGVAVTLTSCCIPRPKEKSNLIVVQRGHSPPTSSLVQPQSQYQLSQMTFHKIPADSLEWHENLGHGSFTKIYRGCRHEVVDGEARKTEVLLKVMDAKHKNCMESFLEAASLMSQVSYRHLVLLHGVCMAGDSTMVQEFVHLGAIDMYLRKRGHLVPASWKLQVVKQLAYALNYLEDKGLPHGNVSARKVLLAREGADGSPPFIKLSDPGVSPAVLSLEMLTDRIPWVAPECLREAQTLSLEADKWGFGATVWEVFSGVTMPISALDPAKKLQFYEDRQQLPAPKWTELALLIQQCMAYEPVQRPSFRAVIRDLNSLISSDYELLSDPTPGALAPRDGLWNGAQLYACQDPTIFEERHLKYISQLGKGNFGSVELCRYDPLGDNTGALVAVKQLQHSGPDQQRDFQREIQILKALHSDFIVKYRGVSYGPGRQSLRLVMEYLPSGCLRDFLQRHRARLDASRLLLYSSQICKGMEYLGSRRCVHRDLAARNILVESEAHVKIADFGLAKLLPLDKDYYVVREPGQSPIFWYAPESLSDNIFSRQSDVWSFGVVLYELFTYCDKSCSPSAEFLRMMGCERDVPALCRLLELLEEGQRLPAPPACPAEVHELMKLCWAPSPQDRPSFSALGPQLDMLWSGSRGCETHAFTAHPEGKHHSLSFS
As to the kind of experiment: Kinobeads assay, JAK3. It counts as binding. The settings on record: mixed Molt4/Ramos cell lysate, dot blot detection. The essentials: as §1

T1 sequence (O60674 whole entry): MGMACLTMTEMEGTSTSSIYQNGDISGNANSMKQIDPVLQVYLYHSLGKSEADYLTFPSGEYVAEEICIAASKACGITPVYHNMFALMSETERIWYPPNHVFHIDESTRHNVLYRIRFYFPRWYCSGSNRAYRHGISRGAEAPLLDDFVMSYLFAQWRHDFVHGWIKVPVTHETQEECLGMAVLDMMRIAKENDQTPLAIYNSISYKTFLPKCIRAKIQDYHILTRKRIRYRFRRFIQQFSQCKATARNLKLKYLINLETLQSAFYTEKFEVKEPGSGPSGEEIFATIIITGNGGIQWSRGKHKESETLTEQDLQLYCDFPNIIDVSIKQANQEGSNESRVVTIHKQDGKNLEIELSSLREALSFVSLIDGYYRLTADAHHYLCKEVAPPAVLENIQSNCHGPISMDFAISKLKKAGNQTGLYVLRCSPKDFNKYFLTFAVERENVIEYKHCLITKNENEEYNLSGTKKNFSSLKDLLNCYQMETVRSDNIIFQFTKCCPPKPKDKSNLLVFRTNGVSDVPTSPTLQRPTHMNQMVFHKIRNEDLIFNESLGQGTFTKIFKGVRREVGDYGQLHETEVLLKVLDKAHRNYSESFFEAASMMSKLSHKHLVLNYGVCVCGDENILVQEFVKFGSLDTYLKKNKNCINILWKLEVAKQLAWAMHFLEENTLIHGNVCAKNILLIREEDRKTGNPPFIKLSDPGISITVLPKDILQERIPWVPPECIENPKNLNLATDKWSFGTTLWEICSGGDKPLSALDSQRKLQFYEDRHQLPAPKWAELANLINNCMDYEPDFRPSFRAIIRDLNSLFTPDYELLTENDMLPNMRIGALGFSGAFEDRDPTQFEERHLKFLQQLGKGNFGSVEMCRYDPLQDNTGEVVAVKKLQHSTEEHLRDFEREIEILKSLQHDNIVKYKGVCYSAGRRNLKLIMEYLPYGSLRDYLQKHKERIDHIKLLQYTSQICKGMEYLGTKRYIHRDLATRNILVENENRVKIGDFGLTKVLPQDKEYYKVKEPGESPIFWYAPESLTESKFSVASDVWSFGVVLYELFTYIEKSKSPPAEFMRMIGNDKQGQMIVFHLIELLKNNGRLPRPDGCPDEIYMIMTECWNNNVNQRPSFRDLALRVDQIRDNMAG

On to `COc1nn(CC(F)F)cc1Nc1ncc2cnn(Cc3cc(F)ccc3F)c2n1` [Example 152, 1-(2,5-Difluorobenzyl)-N-(1-(2,2-difluoroethyl)-3-methoxy-1H-pyrazol-4-yl)-1H-pyrazolo[3,4-d]pyrimidin-6-amine], for which the IC50 (usually the concentration that gives 50% inhibition) at JAK2 is 1000 to 10000 nM; against JAK3 it was under 100 nM.

With `CC(C)S(=O)(=O)Nc1ccccc1Cn1ncc2cnc(Nc3cnn(C)c3)nc21` [Example 126, N-(2-((6-((1-Methyl-1H-pyrazol-4-yl)amino)-1H-pyrazolo[3,4-d]pyrimidin-1-yl)methyl)phenyl)propane-2-sulfonamide], the values for the IC50 on JAK2 and on JAK3 were 1000 to 10000 nM and under 100 nM, respectively.

In the case of `COCCOc1cccc(Cn2ncc3cnc(Nc4cnn(C)c4)nc32)c1` [Example 132, 1-(3-(2-Methoxyethoxy)benzyl)-N-(1-methyl-1H-pyrazol-4-yl)-1H-pyrazolo[3,4-d]pyrimidin-6-amine], the IC50 against JAK2 was at least 10000 nM; against JAK3 it was under 100 nM.

As to `OCCn1cc(Nc2ncc3cnn(Cc4c(F)ccc(F)c4F)c3n2)cn1` [Example 254, 2-(4-((1-(2,3,6-Trifluorobenzyl)-1H-pyrazolo[3,4-d]pyrimidin-6-yl)amino)-1H-pyrazol-1-yl)ethanol], the IC50 at JAK2 was 100 to 1000 nM; against JAK3 it was under 100 nM.

As for `COc1cccc(F)c1Cn1ncc2cnc(Nc3cnn(C)c3)nc21` [Example 90, 1-(2-Fluoro-6-methoxybenzyl)-N-(1-methyl-1H-pyrazol-4-yl)-1H-pyrazolo[3,4-d]pyrimidin-6-amine], the IC50 at JAK2 is 100 to 1000 nM; against JAK3 it was under 100 nM.

Take `N#Cc1ccccc1Cn1ncc2cnc(Nc3cnn(CC(=O)N4CCOCC4)c3)nc21` [Example 14, 2-((6-(1-(2-Morpholino-2-oxoethyl)-1H-pyrazol-4-ylamino)-1H-pyrazolo[3,4-d]pyrimidin-1-yl)methyl)benzonitrile]: the values for the IC50 against JAK2 and on JAK3 were 100 to 1000 nM and under 100 nM, respectively.

Turning to `CN1CCCC(Cn2cc(Nc3ncc4cnn(Cc5ccccc5F)c4n3)cn2)C1` (stereo not drawn) [Example 192, 1-(2-Fluorobenzyl)-N-(1-((1-methylpiperidin-3-yl)methyl)-1H-pyrazol-4-yl)-1H-pyrazolo[3,4-d]pyrimidin-6-amine], the 50% inhibitory concentration (IC50) on JAK2 is 100 to 1000 nM; against JAK3 it was under 100 nM.

Take `CCN(CC)CCn1cc(Nc2ncc3cnn(Cc4ccccc4F)c3n2)cn1` [Example 123, N-(1-(2-(Diethylamino)ethyl)-1H-pyrazol-4-yl)-1-(2-fluorobenzyl)-1H-pyrazolo[3,4-d]pyrimidin-6-amine]: the IC50 was 100 to 1000 nM on JAK2 and under 100 nM on JAK3.

Regarding `N#Cc1ccccc1Cn1ncc2cnc(Nc3ccon3)nc21` [Example 8], the concentration for half-maximal inhibition (IC50) against JAK2 is at least 10000 nM; against JAK3 it was 1000 to 10000 nM.

Regarding `Cn1cc(Nc2ncc3cnn(Cc4cccnc4F)c3n2)cn1` [Example 45, 1-((2-Fluoropyridin-3-yl)methyl)-N-(1-methyl-1H-pyrazol-4-yl)-1H-pyrazolo[3,4-d]pyrimidin-6-amine], the IC50 was 1000 to 10000 nM against JAK2 and under 100 nM against JAK3.

As for `NS(=O)(=O)c1ccc(-n2ncc3cnc(Nc4cnn(CC(F)F)c4)nc32)cc1` [Example 127, 4-(6-((1-(2,2-Difluoroethyl)-1H-pyrazol-4-yl)amino)-1H-pyrazolo[3,4-d]pyrimidin-1-yl)benzenesulfonamide], the IC50 lay within 1000 to 10000 nM against JAK2 and 100 to 1000 nM at JAK3.

`COCCOc1ccccc1Cn1ncc2cnc(Nc3cnn(C)c3)nc21` [Example 102, 1-(2-(2-Methoxyethoxy)benzyl)-N-(1-methyl-1H-pyrazol-4-yl)-1H-pyrazolo[3,4-d]pyrimidin-6-amine]: the values for the IC50 against JAK2 and against JAK3 were 1000 to 10000 nM and 100 to 1000 nM, respectively.

As to `CNC(=O)Cn1cc(Nc2ncc3cnn(Cc4cccc(F)n4)c3n2)cn1` [Example 291, 2-(4-((1-((6-Fluoropyridin-2-yl)methyl)-1H-pyrazolo[3,4-d]pyrimidin-6-yl)amino)-1H-pyrazol-1-yl)-N-methylacetamide], the values for the IC50 at JAK2 and on JAK3 were 1000 to 10000 nM and under 100 nM, respectively.

Regarding `Cn1cc(Nc2ncc3cnn(Cc4ccccc4C#N)c3n2)cn1` [Example 1, 2-((6-(1-Methyl-1H-pyrazol-4-ylamino)-1H-pyrazolo[3,4-d]pyrimidin-1-yl)methyl)benzonitrile], the values for the IC50 against JAK2 and at JAK3 were 1000 to 10000 nM and under 100 nM, respectively.

Turning to `Cn1cc(Nc2ncc3cnn(Cc4ccncc4F)c3n2)cn1` [Example 46, 1-((3-Fluoropyridin-4-yl)methyl)-N-(1-methyl-1H-pyrazol-4-yl)-1H-pyrazolo[3,4-d]pyrimidin-6-amine], the IC50 lay within 1000 to 10000 nM against JAK2 and 100 to 1000 nM on JAK3.

Consider `Cn1cc(Nc2ncc3cnn(Cc4cccc(C(N)=O)c4)c3n2)cn1` [Example 80, 3-((6-((1-Methyl-1H-pyrazol-4-yl)amino)-1H-pyrazolo[3,4-d]pyrimidin-1-yl)methyl)benzamide], for which the values for the IC50 on JAK2 and on JAK3 were 1000 to 10000 nM and under 100 nM, respectively.

Turning to `Cc1nn(C)cc1Nc1ncc2cnn(Cc3ccccc3)c2n1` [Example 110, 1-Benzyl-N-(1,3-dimethyl-1H-pyrazol-4-yl)-1H-pyrazolo[3,4-d]pyrimidin-6-amine], the IC50 on JAK2 is at least 10000 nM; at JAK3, 100 to 1000 nM.

For `Cn1cc(Nc2ncc3cnn(Cc4ccccc4F)c3n2)cc1C(=O)N1CCOCC1` [Example 244, (4-((1-(2-Fluorobenzyl)-1H-pyrazolo[3,4-d]pyrimidin-6-yl)amino)-1-methyl-1H-pyrrol-2-yl)(morpholino)methanone], the IC50 against JAK2 and against JAK3 was under 100 nM each time.

On to `Cn1cc(Nc2ncc3cnn(Cc4cccc(F)n4)c3n2)cn1` [Example 170, 1-((6-Fluoropyridin-2-yl)methyl)-N-(1-methyl-1H-pyrazol-4-yl)-1H-pyrazolo[3,4-d]pyrimidin-6-amine], for which the values for the IC50 against JAK2 and against JAK3 were 1000 to 10000 nM and under 100 nM, respectively.

Consider `Cn1cc(Nc2ncc3cnn(Cc4cccc(N5CCOCC5)c4)c3n2)cc1C(=O)N1CCOCC1` [Example 248], for which the IC50 was 1000 to 10000 nM against JAK2 and under 100 nM at JAK3.

Regarding `Cn1cc(Nc2ncc3cnn(Cc4ccccc4C(F)(F)F)c3n2)cn1` [Example 65, N-(1-Methyl-1H-pyrazol-4-yl)-1-(2-(trifluoromethyl)benzyl)-1H-pyrazolo[3,4-d]pyrimidin-6-amine], the IC50 is 1000 to 10000 nM against JAK2 and under 100 nM against JAK3.

Regarding `Cn1cc(Nc2ncc3cnn(Cc4cccc(OCCN5CCCCC5)c4)c3n2)cn1` [Example 167, N-(1-Methyl-1H-pyrazol-4-yl)-1-(3-(2-(piperidin-1-yl)ethoxy)benzyl)-1H-pyrazolo[3,4-d]pyrimidin-6-amine], the IC50 at JAK2 was at least 10000 nM; against JAK3 it was under 100 nM.

Regarding `Cn1cc(Nc2ncc3cnn(Cc4ccccc4Oc4ccccc4)c3n2)cn1` [Example 224, N-(1-Methyl-1H-pyrazol-4-yl)-1-(2-phenoxybenzyl)-1H-pyrazolo[3,4-d]pyrimidin-6-amine], the results for the IC50 at JAK2 and against JAK3 were at least 10000 nM and 100 to 1000 nM, respectively.

On to `Cn1cc(Nc2ncc3cnn(Cc4cccc5c4OCCO5)c3n2)cn1` [Example 229, 1-((2,3-Dihydrobenzo[b][1,4]dioxin-5-yl)methyl)-N-(1-methyl-1H-pyrazol-4-yl)-1H-pyrazolo[3,4-d]pyrimidin-6-amine], for which the IC50 against JAK2 is 100 to 1000 nM; against JAK3, under 100 nM.

On to `COc1nn(CCO)cc1Nc1ncc2cnn(Cc3ccccc3)c2n1` [Example 106, 2-(4-((1-Benzyl-1H-pyrazolo[3,4-d]pyrimidin-6-yl)amino)-3-methoxy-1H-pyrazol-1-yl)ethanol], for which the IC50 on JAK2 was 1000 to 10000 nM; against JAK3 it was under 100 nM.

`Cn1cc(Nc2ncc3cnn(Cc4ccccc4N4CCOCC4)c3n2)cn1` [Example 180, N-(1-Methyl-1H-pyrazol-4-yl)-1-(2-morpholinobenzyl)-1H-pyrazolo[3,4-d]pyrimidin-6-amine]: the IC50 at JAK2 and at JAK3 was 100 to 1000 nM throughout.

As for `Cn1cc(Nc2ncc3cnn(Cc4cccc(C#N)c4)c3n2)cn1` [Example 68, 3-((6-((1-Methyl-1H-pyrazol-4-yl)amino)-1H-pyrazolo[3,4-d]pyrimidin-1-yl)methyl)benzonitrile], the figures for the IC50 against JAK2 and on JAK3 were 1000 to 10000 nM and under 100 nM, respectively.

The values are drawn from patent US9242987B2, “Heterocyclyl pyrazolopyrimidine analogues as JAK inhibitors” (Cellzome Limited, priority 2009, dated 2016).
